According to US12054510B2, “2′ and/or 5′ amino-acid ester phosphoramidate 3′-deoxy adenosine derivatives as anti-cancer compounds” (Nucana plc, priority 2014, dated 2024):

How the values were obtained:
CEM (TdT+ve) = test: ATP ViaLight plus cell viability assay; type: cell-based, Human; conditions: CEM (TdT+ve)
Experimental: (§1) Certain compounds of the invention were subjected to further studies to test the cytotoxic activity of certain compounds of the invention and also to measure their activity against 4 haematological cancer cell lines • TdT positive CEM (Human ALL) • TdT negative K562 (Human CML) • TdT negative H1-60 (Human ANLL) • RL (CRL-2261) non-HD lymphoma • The concentrations of the active metabolite dATP (Cordycepin triphosphate) in these cell lines was also measured. • The cytotoxic activity and the intracellular 3′-dATP concentrations were also studied in the presence of hENT1, Adenosine Kinase (AK) and Adenosine Deaminase pharmacological inhibitors in CEM and RL cancer cell lines. Said inhibitors that mimic known cancer resistance mechanisms. Methods Cell Culture
(§2) HL-60, K562, CCRF-CEM and RL cell lines were cultured in RPMI-1640 medium (Sigma Aldrich, UK), which were supplemented with 10% Fetal Bovine Serum (FBS) (PAA Laboratories), 1% amphotericin B (5.5 ml) and 1% penicillin/streptomycin (5.5 ml) (PAA Laboratories) and grown in flasks at 37° C. incubator with 5% CO2.
(§3) The amount of ATP was used as a measurement of cell number and cell viability. ATP ViaLight™ plus assay kit (Lonza, USA: Product No. LT07-121) to detect ATP in cells treated in luminescence compatible 96 well plates (initial concentration of cells was 1×10^4 cells/well) with cordycepin and ProTides at concentrations of: 0, 0.1, 0.5, 1, 5 and 10 μM, followed by incubation for 72 hours at 37° C. incubator with 5% CO2. For inhibitor studies, 10 μM of NBTI or 1 μM EHNA or A-134974 was added and left for 5 minutes before adding the drugs (see section 5 for inhibitor details).
(§4) After incubation, 50 μl of cell lysis reagent was added to the 96 well plates to release the intracellular ATP, followed by 100 μl of ATP monitoring reagent (AMR). The luminescent values of each well were determined using FLUOstar OPTIMA microplate reader (BMG Labtech) which convert ATP into light by using luciferase enzyme. Therefore, the amount of luminescence produced was directly proportional to the amount of ATP.
(§5) Cell lines were treated in the same way as described above but before treatment with drugs, a number of inhibitors were added: • 1) Nitrobenzylthioinosine (NBTI) (Sigma-Aldrich, St. Louis, MO, product # N2255) blocks nucleoside transporters • 2) EHNA hydrochloride (Sigma-Aldrich, St. Louis, MO, product # E114) blocks adenosine deaminase • 3) Adenosine kinase inhibitor A-134974 dihydrochloride hydrate (Sigma-Aldrich, St. Louis, MO, product # A2846): blocks adenosine kinase
(§6) The dose-response curves of cytotoxicity of the drugs was determined using non-linear regression analysis of percentage cell viability versus concentration and EC50 values were obtained. The intracellular assay was conducted in five replicates for each condition. Intracellular assay was determined using paired t test (two-tailed) analysis of 3′ ATP/ATP concentration and p-values were obtained. For all the analysis, Prism Software program (GraphPad Software) was used and Microsoft Powerpoint® 2013 was used to plot the results.

K562 [1] = test: CellTiterGlo cell viability assay, initial screening; type: cell-based; conditions: 72 hr, Table II
Experimental: (§7) In vitro viability assays were performed to assess the effects of compounds on cell viability in 7 selected cell lines over 72 hr using the CellTiterGlo (CTG, Promega-G7573) assay. The tests were performed in duplicates with treatment of compounds at 9 points, 3.16 folds titration in 96 well plates over ˜72 hr. The compound starting concentrations were […]. Cell viability assay using CellTiterGlo in 96-well plate were performed. The compound treatment was 72 hrs, under standard growth conditions, and in duplicate. Compounds were dissolved to 40 mM with thawed […]. Compounds were serially diluted at 3.16 fold in thawed DMSO, and warmed to 37° C. before being dissolved in media (2 μl+200 μl). After compounds were dissolved in media (media was also warmed to 37° C.). Media containing compounds were warmed to 37° C. in incubator and then compounds in media were added to cell plates (50 μl+50 μl), in duplicates. The compounds final concentrations were from […] to 19.9 nM. All compound solubilities were checked and recorded again, then the plates were transferred to CO2 tissue culture incubator immediately and incubated for 3 days. DMSO final concentration is 0.5%.

MOLT-4 = test: as above; type: cell-based; conditions: MOLT-4; 72 hr; Table II
Experimental: as §7

HepG2 = test: as above; type: cell-based; conditions: HepG2; 72 hr; Table II
Experimental: as §7

KG-1 [2] = test: as above; type: cell-based; conditions: KG-1; 72 hr; Table II
Experimental: as §7

MCF-7 = test: as above; type: cell-based; conditions: MCF-7; 72 hr; Table II
Experimental: as §7

CCRF-CEM = test: as above; type: cell-based; conditions: CCRF-CEM; 72 hr; Table II
Experimental: as §7

HL-60 [3] = test: as above; type: cell-based; conditions: HL-60; 72 hr; Table II
Experimental: as §7

K562 [4] = test: ATP ViaLight plus cell viability assay; type: cell-based, Human; conditions: K562
Experimental: as §1, §2, §3, §4, §6

HL-60 [5] = test: ATP ViaLight plus cell viability assay; type: cell-based, Human; conditions: HL-60
Experimental: as §1, §2, §3, §4, §6

RL (CRL-2261) = test: ATP ViaLight plus cell viability assay; type: cell-based
Experimental: as §1, §2, §3, §4, §5, §6

Z138 = test: Solid tumour and haematological malignancy assay (CellTiterGlo); type: cell-based; conditions: 72 hr
Experimental: (§8) In vitro viability assay were performed to assess the effects of compounds on cell viability in selected cell lines over 72 hr using the CellTiterGlo (CTG, Promega-G7573) assay. The tests were performed in duplicates with treatment of compounds at 9 points, 3.16 folds titration in 96 well plates over ˜72 hr. The compound starting concentrations were 198 mM. Cell viability assay using CellTiterGlo in 96-well plate were performed. Compound treatment 72 hrs, standard growth conditions, duplicates. Compounds were dissolved to 40 mM with thawed […]. Compounds were serially diluted at 3.16 fold in thawed DMSO, and warmed to 37° C. before being dissolved in media (2 μl+200 μl). After compounds were dissolved in media, media containing compounds were warmed to 37° C. in incubator and then compounds in media were added to cell plates (50 μl+50 μl) in duplicates. The compounds' final concentrations were from 198M to 19.9 nM. All compound solubilities were checked and recorded again, then the plates were transferred to CO2 tissue culture incubator immediately and incubated for 3 days. DMSO final concentration is 0.5%.

SW620 = test: as above; type: cell-based; conditions: SW620; 72 hr
Experimental: as §8

BxPC-3 = test: as above; type: cell-based; conditions: 72 hr
Experimental: as §8

Jurkat = test: as above; type: cell-based; conditions: 72 hr
Experimental: as §8

KG-1 [6] = test: as above; type: cell-based; conditions: KG-1; 72 hr
Experimental: as §8, with “The tests were performed in duplicates with treatment of compounds at 9 points, 3.16 folds titration in 96 well plates over ˜72 hr. The compound starting concentrations were 198 mM.” left out, “Compounds were serially diluted at 3.16 fold in thawed DMSO, and warmed to 37° C. before being dissolved in media (2 μl+200 μl).” left out, “The compounds' final concentrations were from 198M to 19.9 nM.” left out

HT29 = test: as above; type: cell-based; conditions: HT29; 72 hr
Experimental: as §8, with “The tests were performed in duplicates with treatment of compounds at 9 points, 3.16 folds titration in 96 well plates over ˜72 hr. The compound starting concentrations were 198 mM.” left out, “Compounds were serially diluted at 3.16 fold in thawed DMSO, and warmed to 37° C. before being dissolved in media (2 μl+200 μl).” left out, “The compounds' final concentrations were from 198M to 19.9 nM.” left out

CCRFCEM = test: as above; type: cell-based; conditions: CCRFCEM; 72 hr
Experimental: as §8, with “The tests were performed in duplicates with treatment of compounds at 9 points, 3.16 folds titration in 96 well plates over ˜72 hr. The compound starting concentrations were 198 mM.” left out, “Compounds were serially diluted at 3.16 fold in thawed DMSO, and warmed to 37° C. before being dissolved in media (2 μl+200 μl).” left out, “The compounds' final concentrations were from 198M to 19.9 nM.” left out

BxPC-3-Luc = test: as above; type: cell-based; conditions: 72 hr, Table VII
Experimental: as §8

Row | Structure (SMILES) | (FD) fold difference compared to Cordycepin = Cordycepin IC50/ProTide IC50 (CEM (TdT+ve)) | M.I. %: maximum percentage inhibition of cell viability (K562 [1]) | M.I. %: maximum percentage inhibition of cell viability (MOLT-4) | M.I. %: maximum percentage inhibition of cell viability (HepG2) | M.I. %: maximum percentage inhibition of cell viability (KG-1 [2]) | M.I. %: maximum percentage inhibition of cell viability (MCF-7) | M.I. %: maximum percentage inhibition of cell viability (CCRF-CEM) | M.I. %: maximum percentage inhibition of cell viability (HL-60 [3]) | (FD) fold difference compared to Cordycepin = Cordycepin IC50/ProTide IC50 (K562 [4]) | (FD) fold difference compared to Cordycepin = Cordycepin IC50/ProTide IC50 (HL-60 [5]) | (FD) fold difference compared to Cordycepin = Cordycepin IC50/ProTide IC50 (RL (CRL-2261)) | MI % (Z138) | MI % (SW620) | MI % (BxPC-3) | MI % (Jurkat) | MI % (KG-1 [6]) | MI % (HT29) | MI % (CCRFCEM) | MI % (BxPC-3-Luc)
1 | CCCCCOC(=O)[C@H](CC(C)C)NP(=O)(OC[C@@H]1C[C@@H](O)[C@H](n2cnc3c(N)ncnc32)O1)Oc1cccc2ccccc12 (mixture of isomers) [D, (2S)-pentyl 2-(((((2S,4R,5R)-5-(6-amino-9H-purin-9-yl)-4-hydroxytetrahydrofuran-2-yl)methoxy)(naphthalen-1-yloxy)phosphoryl)amino)-4-methylpentanoate] | 3 | 99% | 100% | 99% | 100% | 100% | 100% | 100% | 3 | 2 | 5 | – | – | – | – | – | – | – | –
2 | Nc1ncnc2c1ncn2[C@@H]1O[C@H](COP(=O)(NCC(=O)OCc2ccccc2)Oc2ccccc2)C[C@H]1O (stereo partly drawn) [C, Benzyl 2-(((((2S,4R,5R)-5-(6-amino-9H-purin-9-yl)-4-hydroxytetrahydrofuran-2-yl)methoxy)(phenoxy)phosphoryl)amino)acetate] | – | 92% | 93% | 59% | 65% | 87% | 94% | 82% | – | – | – | 100% | 100% | 99% | 100% | 102% | 99% | 100% | –
3 | Nc1nc(Cl)nc2c1ncn2[C@@H]1O[C@H](CO)C[C@H]1O [2-Cl-cordycepin, 3′-deoxy-2-chloroadenosine, reference compound] | – | – | – | – | – | – | – | – | – | – | – | – | – | – | – | – | – | – | −1.3%
